Measured values reported in US9462805B2, “Herbicide-resistant proteins, encoding genes, and uses thereof” (Beijing Dabeinong Technology Group Co., Ltd., priority 2012, dated 2016).

Experiments:
[1] = system: corn plants transfected with 24DT02 nucleotide sequence; experiment: Herbicide-resistance effect test of transgenic corn plants (24DT02; strains S1-S3); format: in vivo, maize; conditions: 21 days after spraying; for Normal development of prop roots / Abnormal development of prop roots: number of plants
Protocol: (§1) Herbicide resistance effects tests to 2,4-D dimethyl ammonium salt and agroxone of maize plants containing 24DT02 nucleotide sequence, 24DT02 substituted nucleotide sequence, 24DT02 truncated nucleotide sequence, 24DT02 added nucleotide sequence, control nucleotide sequence respectively and wild type maize plants (stages V3-V4) were performed respectively.
(§2) Maize plants containing 24DT02 nucleotide sequence, 24DT02 substituted nucleotide sequence, 24DT02 truncated nucleotide sequence, 24DT02 added nucleotide sequence, control nucleotide sequence respectively and wild type maize plants were taken and spayed with 2,4-D dimethyl ammonium salt (8960 g ae/ha, 16-folds concentration in field), agroxone (8960 g ae/ha, 16-folds concentration in field) and blank solvent (water) respectively. Prop root development was counted 21 days after spaying. Three strains (S1, S2, and S3) of corn plants transfected with 24DT02 nucleotide sequence, two strains (S4 and S5) of corn plants transfected with 24DT02 substituted nucleotide sequence, two strains (S6 and S7) of corn plants transfected with 24DT02 truncated nucleotide sequence, two strains (S8 and S9) of corn plants transfected with 24DT02 added nucleotide sequence, two strains (S10 and S11) of corn plants transfected with control nucleotide sequence and 1 strain of wild type (CK) corn were selected and 10-15 plants from each stain were tested.

[2] = system: Arabidopsis T1 plants transformed with 24DT02 nucleotide sequence; experiment: Herbicide resistance effect test of transgenic Arabidopsis T1 plants (24DT02); format: in vivo, Arabidopsis thaliana; conditions: number of T1 plants, genotype 24DT02; for Highly resistant: 560 g ae/ha (1-fold field concentration) sprayed, growth consistent with blank solvent 7 days after spraying; for Moderately resistant / Non-resistant / Lowly resistant: 560 g ae/ha sprayed; for Moderately resistant: curly rosette leaves 7 days after spraying; for Non-resistant: dead 14 days after spraying; for Lowly resistant: incapable of bolting 14 days after spraying
Protocol: (§3) On 7 days after planting (DAP) and 11 DAP respectively, the T1 plants (cotyledon stage and 2-4 leaves stage, respectively) were sprayed with 0.2% of Liberty herbicide solution (200 g ai/L glufosinate-ammonium) using DeVilbiss compressed air nozzle at a spraying volume of 10 ml/disc (703 L/ha) so as to provide effective amount of glufosinate-ammonium (280 g ai/ha) for each application. The survival plants (actively growing plants) were verified 4 to 7 days after the last spraying and transferred into the square pot (7 cm×7 cm) made from vermiculite and horses dung (3-5 plants per pot). The transplanted plants were covered with moisturizing mask for 3-4 days and placed in culture room at 22° C. or directly into the greenhouse as described above. Then the mask was removed and the plants were planted in greenhouse (22±5° C., 50±30% RH, 14 hours of lighting: 10 hours of darkness, minimum […] natural light+complement light) at least one day before testing the ability of 24DT02 to provide the resistance to phenoxy auxin herbicide.
(§4) 24DT02 gene was used to transform Arabidopsis for the first time. At first, T1 transformants were selected from the background of un-transformed seeds, using glufosinate-ammonium selection scheme. About 40000 T1 seeds were screened among which 195 strains of T1 generation positive transformants (PAT gene) were identified, i.e. the transformation efficiency was about 0.5%. Herbicide resistance effect tests to 2,4-D dimethyl ammonium salt and agroxone of Arabidopsis T1 plants transformed with 24DT02 nucleotide sequence, substituted 24DT02 nucleotide sequence, truncated 24DT02 nucleotide sequence, added 24DT02 nucleotide sequence, control nucleotide sequence respectively and wild-type Arabidopsis plants were performed after 18 days of planting.
(§5) Arabidopsis T1 plants transformed with 24DT02 nucleotide sequence, substituted 24DT02 nucleotide sequence, truncated 24DT02 nucleotide sequence, added 24DT02 nucleotide sequence and control nucleotide sequence respectively and wild-type Arabidopsis plants were sprayed with 2,4-D dimethyl ammonium salt (560 g ae/ha, 1-fold concentration in field), agroxone (560 g ae/ha, 1-fold concentration in field) and blank solvent (water). Resistance conditions of the plants were counted 7 days and 14 days after spraying. Plants with growth conditions consistent with blank solvent (water) 7 days after spaying were classified as highly resistant plants; Plants with curly rosette leaves 7 days after spaying were classified as moderately resistant plants; Plants incapable of bolting 14 days after spaying were classified as low-resistant plants and the dead plants 14 days after spaying were classified as non-resistant plants. Because each Arabidopsis T1 plant was an independent transformation event, significant differences of individual T1 responses were expected under a given dose.

[3] = system: Arabidopsis T1 plants transformed with truncated 24DT02 nucleotide sequence; experiment: Herbicide resistance effect test of transgenic Arabidopsis T1 plants (24DT02-t); format: in vivo, Arabidopsis thaliana; conditions: number of T1 plants, genotype 24DT02-t, 560 g ae/ha sprayed; for Moderately resistant: curly rosette leaves 7 days after spraying; for Non-resistant: dead 14 days after spraying; for Highly resistant: growth consistent with blank solvent 7 days after spraying; for Lowly resistant: incapable of bolting 14 days after spraying
Protocol: as §3, §4, §5

[4] = system: wild type maize plants; experiment: Herbicide-resistance effect test of wild type (CK) corn; format: in vivo; conditions: 8960 g ae/ha sprayed, 21 days after spraying; for Abnormal development of prop roots / Normal development of prop roots: number of plants
Protocol: as §1, §2

[5] = system: corn plants transfected with 24DT02 added nucleotide sequence; experiment: Herbicide-resistance effect test of transgenic corn plants (added 24DT02; strains S8, S9); format: in vivo, maize; conditions: 8960 g ae/ha sprayed, 21 days after spraying; for Abnormal development of prop roots / Normal development of prop roots: number of plants
Protocol: as §1, §2

[6] = system: Arabidopsis T1 plants transformed with substituted 24DT02 nucleotide sequence; experiment: Herbicide resistance effect test of transgenic Arabidopsis T1 plants (24DT02-i); format: in vivo, Arabidopsis thaliana; conditions: number of T1 plants, genotype 24DT02-i, 560 g ae/ha sprayed; for Moderately resistant: curly rosette leaves 7 days after spraying; for Non-resistant: dead 14 days after spraying; for Highly resistant: growth consistent with blank solvent 7 days after spraying; for Lowly resistant: incapable of bolting 14 days after spraying
Protocol: as §3, §4, §5

[7] = system: corn plants transfected with 24DT02 truncated nucleotide sequence; experiment: Herbicide-resistance effect test of transgenic corn plants (truncated 24DT02; strains S6, S7); format: in vivo, maize; conditions: 8960 g ae/ha sprayed, 21 days after spraying; for Abnormal development of prop roots / Normal development of prop roots: number of plants
Protocol: as §1, §2

[8] = system: corn plants transfected with 24DT02 substituted nucleotide sequence; experiment: Herbicide-resistance effect test of transgenic corn plants (substituted 24DT02; strains S4, S5); format: in vivo, maize; conditions: 8960 g ae/ha sprayed, 21 days after spraying; for Abnormal development of prop roots / Normal development of prop roots: number of plants
Protocol: as §1, §2

[9] = corn strain S1 (24DT02), 8960 g ae/ha sprayed
[10] = corn strain S2 (24DT02), 8960 g ae/ha sprayed
[11] = corn strain S3 (24DT02), 8960 g ae/ha sprayed
[12] = corn strain S1 (24DT02), 8960 g ae/ha (16-fold field concentration) sprayed at V3-V4
[13] = corn strain S6 (truncated 24DT02)
[14] = corn strain S7 (truncated 24DT02)
[15] = corn strain S4 (substituted 24DT02)
[16] = corn strain S5 (substituted 24DT02)

## Cc1cc(Cl)ccc1OCC(=O)O [agroxone]
[1]; [9]
  Ratio of the normally developed prop roots: 87.50%
  Abnormal development of prop roots: 2
[1]; [10]
  Ratio of the normally developed prop roots: 100.00%
  Abnormal development of prop roots: 0
  Normal development of prop roots: 12
[1]; [11]
  Ratio of the normally developed prop roots: 92.31%
  Abnormal development of prop roots: 1
  Normal development of prop roots: 12
[1]; [12]
  Normal development of prop roots: 14
[2]
  Highly resistant: 8
  Moderately resistant: 6
  Non-resistant: 4
  Lowly resistant: 2
[3]
  Moderately resistant: 4
  Non-resistant: 4
  Highly resistant: 8
  Lowly resistant: 2
[4]
  Ratio of the normally developed prop roots: 0%
  Abnormal development of prop roots: 16
  Normal development of prop roots: 0
[5]; corn strain S8 (added 24DT02)
  Ratio of the normally developed prop roots: 86.67%
  Abnormal development of prop roots: 2
  Normal development of prop roots: 13
[5]; corn strain S9 (added 24DT02)
  Ratio of the normally developed prop roots: 84.62%
  Abnormal development of prop roots: 2
  Normal development of prop roots: 11
[6]
  Moderately resistant: 5
  Non-resistant: 6
  Highly resistant: 9
  Lowly resistant: 1
[7]; [13]
  Ratio of the normally developed prop roots: 87.50%
  Abnormal development of prop roots: 2
  Normal development of prop roots: 14
[7]; [14]
  Ratio of the normally developed prop roots: 86.67%
  Abnormal development of prop roots: 2
  Normal development of prop roots: 13
[8]; [15]
  Ratio of the normally developed prop roots: 81.25%
  Abnormal development of prop roots: 3
  Normal development of prop roots: 13
[8]; [16]
  Ratio of the normally developed prop roots: 93.33%
  Abnormal development of prop roots: 1
  Normal development of prop roots: 14

## CNC.O=C(O)COc1ccc(Cl)cc1Cl [2,4-D dimethyl ammonium salt]
[1]; [9]
  Ratio of the normally developed prop roots: 81.25%
  Abnormal development of prop roots: 3
[1]; [10]
  Ratio of the normally developed prop roots: 91.67%
  Abnormal development of prop roots: 1
  Normal development of prop roots: 11
[1]; [11]
  Ratio of the normally developed prop roots: 85.71%
  Abnormal development of prop roots: 2
  Normal development of prop roots: 12
[1]; [12]
  Normal development of prop roots: 13
[2]
  Highly resistant: 9
  Moderately resistant: 4
  Non-resistant: 5
  Lowly resistant: 0
[3]
  Moderately resistant: 5
  Non-resistant: 4
  Highly resistant: 7
  Lowly resistant: 0
[4]
  Ratio of the normally developed prop roots: 0%
  Abnormal development of prop roots: 16
  Normal development of prop roots: 0
[5]; corn strain S8 (added 24DT02)
  Ratio of the normally developed prop roots: 80.00%
  Abnormal development of prop roots: 3
  Normal development of prop roots: 12
[5]; corn strain S9 (added 24DT02)
  Ratio of the normally developed prop roots: 78.57%
  Abnormal development of prop roots: 3
  Normal development of prop roots: 11
[6]
  Moderately resistant: 4
  Non-resistant: 4
  Highly resistant: 8
  Lowly resistant: 1
[7]; [13]
  Ratio of the normally developed prop roots: 86.67%
  Abnormal development of prop roots: 2
  Normal development of prop roots: 13
[7]; [14]
  Ratio of the normally developed prop roots: 92.86%
  Abnormal development of prop roots: 1
  Normal development of prop roots: 13
[8]; [15]
  Ratio of the normally developed prop roots: 87.50%
  Abnormal development of prop roots: 2
  Normal development of prop roots: 14
[8]; [16]
  Ratio of the normally developed prop roots: 100.00%
  Abnormal development of prop roots: 0
  Normal development of prop roots: 15
